Results taken from patent US20110065760A1, “COMPOUNDS FOR THE INHIBITION OF ROTAMASES AND USE THEREOF” (Jerini AG, priority 2002, published 2011).

Key:
[1] = WST-1 cytotoxicity assay, MCF-7; assay type: cell-based; settings: human, MCF-7 cells (breast adenocarcinoma); WST-1, 48 h incubation; read-out: EC50 class, cytotoxic effect, CL-5 (MCF-7)
Description: (§1) For this cytotoxic evaluation of the compounds the commercial available WST-1 assay (Roche) was used according to the manufacturer's instructions. The assay is based on the cleavage of the tetrazolium salt WST-1 by mitochondrial dehydrogenases found in viable cells. In general compounds were added to cells cultured in 96-well plates at 37° C. After 48 h of incubation 10 μl of WST-1 solution was added. The formazan dye was analyzed with an ELISA plate reader at (450 vs. 620) nm. CL-1: human acute myeloid leukemia, HL-60 CL-2: human cervix carcinoma, HeLa CL-3: human prostate carcinoma, PC-3 CL-4: human colon adenocarcinoma, Caco-2 CL-5: human breast adenocarcinoma, MCF-7

[2] = WST-1 cytotoxicity assay, HL-60; assay type: cell-based; settings: human, HL-60 cells (acute myeloid leukemia); WST-1, 48 h incubation; read-out: EC50 class, cytotoxic effect, CL-1 (HL-60)
Description: as §1

hPin1 = hPin1 (Homo sapiens, UniProt Q13526); experiment: protease-coupled PPIase assay, hPin1; assay type: biochemical; settings: 6 nM hPin1, substrate Ac-Ala-Ala-Ser(PO3H2)-Pro-Arg-pNA, trypsin, pH 7.8, 6° C.; read-out: IC50 class, Target T-1 (hPin1)
Sequence of hPin1 (Q13526 whole entry): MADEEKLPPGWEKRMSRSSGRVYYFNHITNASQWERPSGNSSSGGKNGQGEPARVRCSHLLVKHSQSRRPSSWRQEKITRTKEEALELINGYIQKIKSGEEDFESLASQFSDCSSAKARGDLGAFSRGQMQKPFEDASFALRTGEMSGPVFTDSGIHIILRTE

[3] = WST-1 cytotoxicity assay, HeLa; assay type: cell-based; settings: human, HeLa cells (cervix carcinoma); WST-1, 48 h incubation; read-out: EC50 class, cytotoxic effect, CL-2 (HeLa)
Description: as §1

[4] = WST-1 cytotoxicity assay, PC-3; assay type: cell-based; settings: human, PC-3 cells (prostate carcinoma); WST-1, 48 h incubation; read-out: EC50 class, cytotoxic effect, CL-3 (PC-3)
Description: as §1

[5] = system: tumor cell lines (HL-60, HeLa, PC-3, Caco-2, MCF-7); experiment: WST-1 cytotoxicity assay, tumor cell lines (panel statement); assay type: cell-based, human; settings: WST-1, 48 h; table 4
Description: as §1

hFKBP12 = hFKBP12 (Homo sapiens, UniProt P62942); experiment: protease-coupled PPIase assay, hFKBP12; assay type: biochemical; settings: 20 nM hFKBP12, substrate Suc-Ala-Phe-Pro-Phe-pNA, chymotrypsin, pH 7.8, 6° C.; read-out: IC50 class, Target T-2 (hFKBP12)
Sequence of hFKBP12 (P62942 whole entry): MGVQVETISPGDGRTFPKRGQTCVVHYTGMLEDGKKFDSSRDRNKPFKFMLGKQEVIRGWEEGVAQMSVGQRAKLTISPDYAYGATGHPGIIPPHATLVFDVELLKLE

LpCyp18 = LpCyp18 (Legionella pneumophila, UniProt Q5ZRZ4); experiment: biochemical; settings: IC50 class, Target T-4 (LpCyp18)
Sequence of LpCyp18 (Q5ZRZ4 1-164): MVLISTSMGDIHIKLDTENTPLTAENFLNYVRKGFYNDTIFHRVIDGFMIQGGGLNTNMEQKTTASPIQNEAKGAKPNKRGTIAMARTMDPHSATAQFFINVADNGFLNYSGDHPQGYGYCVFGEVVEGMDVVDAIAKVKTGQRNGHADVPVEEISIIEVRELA

EcParvulin = EcParvulin (Escherichia coli, UniProt P0A9L5); experiment: protease-coupled PPIase assay, EcParvulin; assay type: biochemical; settings: 20 nM EcParvulin, substrate Suc-Ala-Phe-Pro-Phe-pNA, chymotrypsin, pH 7.8, 6° C.; read-out: IC50 class, Target T-5 (EcParv)
Sequence of EcParvulin (P0A9L5 whole entry): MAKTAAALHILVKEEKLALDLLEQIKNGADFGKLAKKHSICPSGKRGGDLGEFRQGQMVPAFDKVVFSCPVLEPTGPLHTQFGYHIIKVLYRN

hCyp18 = hCyp18 (Homo sapiens, UniProt P62937); experiment: protease-coupled PPIase assay, hCyp18; assay type: biochemical; settings: 10 nM hCyp18, substrate Suc-Ala-Phe-Pro-Phe-pNA, chymotrypsin, pH 7.8, 6° C.; read-out: IC50 class, Target T-3 (hCyp18)
Sequence of hCyp18 (P62937 whole entry): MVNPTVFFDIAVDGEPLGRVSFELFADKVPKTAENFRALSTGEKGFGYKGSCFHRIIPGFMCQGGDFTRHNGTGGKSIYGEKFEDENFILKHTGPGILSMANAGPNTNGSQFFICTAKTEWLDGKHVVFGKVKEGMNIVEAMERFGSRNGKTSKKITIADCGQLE

SMILES | EC50 at 48 h [1] | EC50 at 48 h [2] | EC50 at 48 h [3] | EC50 at 48 h [4] | further results
CC(C)(C)CC(C)(C)NC(=O)Nc1cc(Cl)ccc1O [Compound 6] | < 10 µM | 10 to 50 µM | – | – | –
CC(C)(C)CC(C)(C)NC(=O)Nc1cccc(Cl)c1O [Compound 54] | < 10 µM | 10 to 50 µM | – | – | –
CC(C)(C)CC(C)(C)NC(=O)Nc1ccc(F)c(F)c1O [Compound 150] | < 10 µM | 10 to 50 µM | – | – | –
Oc1c(Cl)cc(Cl)cc1NC(=S)Nc1ccccc1C(F)(F)F [Compound 221] | 10 to 50 µM | 10 to 50 µM | – | – | –
Cc1c(Cl)cc(NC(=S)NCc2ccccc2)c(O)c1Cl [Compound 254] | 10 to 50 µM | 10 to 50 µM | 10 to 50 µM | 10 to 50 µM | IC50 (hPin1): < 1000 nM
Oc1c(Cl)cc(Cl)cc1NCc1ccccc1Sc1ccc(Cl)cc1 [Compound 329] | 10 to 50 µM | 10 to 50 µM | 10 to 50 µM | 10 to 50 µM | –
Oc1c(Cl)cc(Cl)cc1NCc1ccccc1Sc1ccccc1Cl [Compound 332] | – | 10 to 50 µM | 10 to 50 µM | 10 to 50 µM | –
Oc1c(F)cccc1NCc1ccccc1Sc1ccc(Cl)cc1 [Compound 357] | – | < 10 µM | < 10 µM | < 10 µM | cytotoxic effect on the tumor cell lines tested [5]: particular relevance
Oc1c(NCc2ccccc2Sc2ccccc2Cl)ccc(F)c1F [Compound 402] | – | 10 to 50 µM | 10 to 50 µM | 10 to 50 µM | –
Oc1c(NCc2ccccc2Sc2cccc(Cl)c2)ccc(F)c1F [Compound 403] | – | 10 to 50 µM | < 10 µM | < 10 µM | –
CC(O)c1cc(Cl)cc(NCc2ccccc2Sc2ccc(Cl)cc2)c1O (stereo not shown) [Compound 413] | – | 10 to 50 µM | < 10 µM | 10 to 50 µM | –
CC(C)(C)c1ccc(Oc2cccc(CNc3cc(Cl)cc(Cl)c3O)c2)cc1 [Compound 483] | – | – | 10 to 50 µM | 10 to 50 µM | IC50 (hFKBP12): > 100 µM; IC50 (LpCyp18): > 100 µM; IC50 (EcParvulin): 50 to 100 µM; IC50 (hCyp18): 10 to 50 µM; IC50 (hPin1): 1000 to 10000 nM
Oc1c(Cl)cc(Cl)cc1NCc1cccc(OCc2ccccc2)c1 [Compound 484] | – | 10 to 50 µM | < 10 µM | < 10 µM | –
COc1ccc(Oc2cccc(CNc3cc(Cl)cc(Cl)c3O)c2)cc1 [Compound 493] | – | 10 to 50 µM | < 10 µM | < 10 µM | –
